Type in all cases: biochemical
In assay [1] the target is T1, Bovine Pancreatic Chymotrypsin (Bos taurus, UniProt P00766).
T1 construct: from tissue; host or cells: bovine pancreas
In words: Ki determination, bovine pancreatic chymotrypsin (N-Suc-Ala-Ala-Pro-Phe-pNA). The following applies: 100 mM Tris-HCl, pH 7.8, 10 mM CaCl2; read-out: Experimentally Determined Ki, Chymotrypsin. As for the experimental part:
(§1) Protease inhibition was assayed according to published procedures with minor modifications using various proteases and specific chromogenic peptide p-nitroanilide substrates. Assays were performed in Costar ultra-low cluster 96-well microtiter plate (Costar Corning Corp., Cambridge Mass.). Each protease was incubated with various concentrations of the test compound for 15 min. at 37° C. or as otherwise indicated, in specific assay buffer, and the residual activity was then measured by addition of the substrate. p-Nitroaniline produced by the proteolysis was determined by measuring the change in absorbance at 405 nm on a SpectraMAX 340 plate reader (Molecular devices, Sunnyvale, Calif.).
(§2) 1. The inhibition constant, Ki is calculated from individual data points using the equation for a tight-binding inhibitor (See Beith, "Proteinase Inhibitors-Proceedings of 2nd Int. Res. Conference", Fritz, et al. eds, New York, p.4463-4469 (1974)):
(§3) vi /vo [((Ki '+[I]+[E]o)^2 -4 [I]o
(§4) [E]o)^1/2 (Ki '+[I]o -[E]o)]/2[E]o
(§5) where Ki ' is apparent inhibition constant; vi and vo are the inhibited and uninhibited rates, respectively; [I]o and [E]o are the total concentrations of inhibitor and enzyme, respectively.
(§6) [note: [E]o is determined by active site titration of enzyme]
(§7) The Ki values are obtained by correcting Ki ' values for the effect of substrate concentration according to: [formula]
(§8) 2. Other inhibition data (Ki >>[E]o), the Ki is calculated from using the equations for a competitive inhibitor: [formula]
Bovine Pancreatic Chymotrypsin activity was determined by using N-Suc-Ala-Ala-Pro-Phe-pNA in 100 mM Tris-HCl, pH 7.8, 10 mM CaCl2 (See Delmar, et al., J. Biochem. 85, 157-162 (1979)).
(§9) The inhibition constant (Ki) of the test compounds against each proteolytic enzyme was determined according to Zitnik et al., Biochem. Biophys. Res. Commun. 232, 687-697 (1997)).

A further assay addresses T2, Human plasma factor Xa (Homo sapiens, UniProt P00742).
T2 construct: from tissue; host or cells: human plasma
In words: Ki determination, human plasma factor Xa (N-Benzoyl-Ile-Glu-Gly-Arg-pNA). Conditions: 50 mM Tris-HCl, pH 7.8, 200 mM NaCl, 0.05% BSA; read-out: Experimentally Determined Ki, Factor Xa. As for the experimental part: as §1, §2, §3, §4, §5, §6, §7, §8
Human plasma factor Xa activity was determined by using N-Benzoyl-Ile-Glu-Gly-Arg-pNA in 50 mM Tris-HCl, pH 7.8, 200 mM NaCl, 0.05% BSA (See Lottenberg, et al. Meth. Enzymol. 80, 341-361 (1981)).
as §9

The target in the next assay is r-tissue kallikrein (Homo sapiens, UniProt P06870). In words: Ki determination, r-tissue kallikrein (DL-Val-Leu-Arg-pNA). Conditions: 50 mM Tris-HCl, pH 7.8, 200 mM NaCl, 0.05% BSA; read-out: Experimentally Determined Ki, Tissue Kallikrein. As for the experimental part:
as §1, §2, §3, §4, §5, §6, §7, §8
(§10) I. Human Plasma and r-Tissue Kallikrein
(§11) Human plasma and r-tissue kallikrein activity were determined in 50 mM Tris-HCl, pH 7.8, 200 mM NaCl, 0.05% BSA by using H-D-Prolyl-Phe-Arg-pNA and DL-Val-Leu-Arg-pNA, respectively (See Lottenberg, et al., Meth. Enzymol. 80, 341-361 (1981)).
as §9

For another assay, the target named is Human lung tryptase. In words: Ki determination, human lung tryptase (Tosyl-Gly-Pro-Arg-pNA substrate). Conditions: 50 mM Tris-HCl pH 8.0, 37° C., 1 nM tryptase, 320 μM GPR-pNA; read-out: Experimentally Determined Ki, Tryptase. As for the experimental part: as §1, §2, §3, §4, §5, §6, §7, §8
Human lung tryptase purchased from Cortex Biochem (San Leandro, Calif.) was purified further on a Superdex 200 gel-filtration column. The active-site concentration of the enzyme was determined by spectrophotometric titration with 4-nitrophenyl 4'-guanidinobenzoate according to Schwartz, et al., J. Immunol., 114, 2304-2311 (1990). Tryptase activity was measured according to the procedures of Schwartz, et al., J. Biol. Chem., 261, 7372-7379 (1986) (See also, Schwartz, L. B., Methods In Enzymology, 244, 88 (1994)) with minor modifications, using Tosyl-Gly-Pro-Arg-p-nitroanilide ("GPR-pNA", Sigma Chemical Co., St. Louis, Mo., T-1637) as a chromogenic substrate. The reaction was performed in 50 mM Tris-HCl, pH 8.0, containing 150 mM NaCl and 0.02% Triton X-100 at 37° C. in Costar ultra-low cluster 96-well microtiter plates (Costar Corning Corp., Cambridge, Mass.). The amount of pNA produced by tryptase was determined by measuring the change in absorbance at 405 nm on a SpectraMAX 340 plate reader (Molecular devices, Sunnyvale, Calif.). The Km for the substrate was determined by Lineweaver-Burk analysis from initial velocities of substrate hydrolysis. The inhibition assay was carried out in a total volume of 200 μL. Tryptase (30 μL- final concentration 1 nM) was incubated with various concentrations of sample compound (50 μL) to be tested in the above assay buffer for 5 min. The reaction was started by the addition of substrate GPR-pNA (40 μL-final concentration 320 μM), and the residual activity was measured after 15 min. of incubation. The inhibition constant, Ki, was determined by fitting the inhibition data to a two-site competitive binding equation using data analysis program GraphPad PRISM (GraphPad Software, Inc., San Diego, Calif.).
as §9

The target in a further assay is T3, Human plasma kallikrein (Homo sapiens, UniProt P03952).
T3 construct: from tissue; host or cells: human plasma
In words: Ki determination, human plasma kallikrein (H-D-Prolyl-Phe-Arg-pNA). The following applies: 50 mM Tris-HCl, pH 7.8, 200 mM NaCl, 0.05% BSA; read-out: Experimentally Determined Ki, Plasma Kallikrein. As for the experimental part:
as §1, §2, §3, §4, §5, §6, §7, §8, §10, §11, §9

Assay [2] addresses T4, Bovine pancreatic Trypsin (Bos taurus, UniProt P00760).
T4 construct: from tissue; host or cells: bovine pancreas
T4 sequence (P00760 24-246): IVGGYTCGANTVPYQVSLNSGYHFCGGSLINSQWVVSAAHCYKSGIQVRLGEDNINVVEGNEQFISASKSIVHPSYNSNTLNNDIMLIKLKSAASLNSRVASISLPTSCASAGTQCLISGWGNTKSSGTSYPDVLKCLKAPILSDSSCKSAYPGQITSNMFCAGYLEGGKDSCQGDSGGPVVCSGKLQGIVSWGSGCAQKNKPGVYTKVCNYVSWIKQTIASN
In words: Ki determination, bovine pancreatic trypsin (N-a-Benzoyl-L-Arg-pNA). The following applies: 50 mM Tris-HCl, pH 8.2, 20 mM CaCl2; read-out: Experimentally Determined Ki, Trypsin. How it is done:
as §1, §2, §3, §4, §5, §6, §7, §8
Bovine pancreatic Trypsin (TPCK-treated) activity was determined by using N-a-Benzoyl-L-Arg-pNA in 50 mM Tris-HCl, pH 8.2, 20 mM CaCl2 (See Somorin, et al., J. Biochem. 85, 157-162 (1979)).
as §9

r-tissue kallikrein, sequence (P06870 25-262): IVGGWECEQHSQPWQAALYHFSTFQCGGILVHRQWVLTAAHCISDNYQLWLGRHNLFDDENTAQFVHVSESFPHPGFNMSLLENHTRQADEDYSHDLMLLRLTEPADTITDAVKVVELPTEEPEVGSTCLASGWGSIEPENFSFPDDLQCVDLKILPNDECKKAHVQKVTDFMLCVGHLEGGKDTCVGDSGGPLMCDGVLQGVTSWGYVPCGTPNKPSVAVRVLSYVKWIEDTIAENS
T3 sequence (P03952 391-638 limits assumed): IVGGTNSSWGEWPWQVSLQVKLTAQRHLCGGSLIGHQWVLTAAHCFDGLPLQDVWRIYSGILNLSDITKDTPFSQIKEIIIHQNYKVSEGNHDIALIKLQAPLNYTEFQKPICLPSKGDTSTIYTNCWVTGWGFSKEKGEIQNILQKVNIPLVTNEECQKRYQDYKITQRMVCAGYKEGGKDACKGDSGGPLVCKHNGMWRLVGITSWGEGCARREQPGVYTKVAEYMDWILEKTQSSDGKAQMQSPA
T3 sequence (P03952 20-390 partner limits assumed): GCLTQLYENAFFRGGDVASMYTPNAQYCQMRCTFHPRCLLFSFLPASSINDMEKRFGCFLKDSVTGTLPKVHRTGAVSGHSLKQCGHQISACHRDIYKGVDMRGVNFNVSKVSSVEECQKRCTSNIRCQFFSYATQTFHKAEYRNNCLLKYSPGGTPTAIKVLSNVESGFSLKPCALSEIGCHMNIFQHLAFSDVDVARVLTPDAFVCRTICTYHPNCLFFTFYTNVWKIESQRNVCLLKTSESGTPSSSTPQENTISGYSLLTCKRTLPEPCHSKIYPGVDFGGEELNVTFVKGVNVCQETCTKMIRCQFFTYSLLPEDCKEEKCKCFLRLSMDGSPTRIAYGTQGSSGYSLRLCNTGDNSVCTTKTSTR
T2 sequence (P00742 235-488 limits assumed): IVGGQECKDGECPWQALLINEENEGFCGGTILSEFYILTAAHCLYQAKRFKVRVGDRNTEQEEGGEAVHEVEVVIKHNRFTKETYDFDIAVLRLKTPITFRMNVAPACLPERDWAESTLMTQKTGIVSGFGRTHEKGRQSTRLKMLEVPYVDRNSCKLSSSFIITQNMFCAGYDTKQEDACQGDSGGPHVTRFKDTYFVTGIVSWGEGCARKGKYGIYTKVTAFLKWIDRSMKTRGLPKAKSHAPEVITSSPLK
T2 sequence (P00742 41-179 partner limits assumed): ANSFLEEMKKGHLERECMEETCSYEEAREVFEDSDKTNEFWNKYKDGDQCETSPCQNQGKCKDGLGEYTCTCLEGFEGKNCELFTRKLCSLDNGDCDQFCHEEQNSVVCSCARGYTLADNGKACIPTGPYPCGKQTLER

In general, Ki refers to the dissociation constant of the complex between target and ligand, obtained from inhibition or displacement. Turning to `N=C(N)c1cccc(S(=O)(=O)NCc2ccc(OCCCCCOc3ccc(CNS(=O)(=O)c4cccc(C(=N)N)c4)cc3)cc2)c1` [Example 41, 1,5-Bis-{4-[(3-carbamimidoyl-benzenesulfonylamino)-methyl]-phenoxy}-pentane], the Ki in assay [1] is > 100 µM; on Human plasma factor Xa, 6.4 µM; on r-tissue kallikrein, > 100 µM; at Human lung tryptase it was 0.08 µM; at Human plasma kallikrein, 18 µM; in assay [2] it was 2.5 µM.

In the case of `N=C(N)c1cccc(S(=O)(=O)NCc2ccc(OCCCCCCOc3ccc(CNS(=O)(=O)c4cccc(C(=N)N)c4)cc3)cc2)c1` [Example 43, 1,6-Bis-{4-[(3-carbamimidoyl-benzenesulfonylamino)-methyl]-phenoxy}-hexane], the Ki in assay [1] is 20 µM; on Human plasma factor Xa, 15.6 µM; at r-tissue kallikrein it was > 100 µM; on Human lung tryptase it was 0.11 µM; on Human plasma kallikrein, > 100 µM; in assay [2], 3.6 µM.

As for `N=C(N)c1cccc(S(=O)(=O)NCc2ccc(OCCCCCCCOc3ccc(CNS(=O)(=O)c4cccc(C(=N)N)c4)cc3)cc2)c1` [Example 45, 1,7-Bis-{4-[(3-carbamimidoyl-benzenesulfonylamino)-methyl]-phenoxy}-heptane], the inhibition constant Ki is > 100 µM in assay [1]; 7.6 µM on Human plasma factor Xa; > 100 µM on r-tissue kallikrein; 0.8 µM on Human lung tryptase; 34 µM on Human plasma kallikrein; 12 µM in assay [2].

Take `N=C(N)c1cccc(S(=O)(=O)NCc2ccc(OCCCCOc3ccc(CNS(=O)(=O)c4cccc(C(=N)N)c4)cc3)cc2)c1` [Example 47, 1,4-Bis-{4-[(3-carbamimidoyl-benzenesulfonylamino)-methyl]-phenoxy}-butane]: the Ki in assay [1] was > 100 µM; on Human plasma factor Xa it was 2.9 µM; at r-tissue kallikrein, > 100 µM; at Human lung tryptase it was 0.03 µM; at Human plasma kallikrein, 2.5 µM; in assay [2], 1.8 µM.

`N=C(N)c1cccc(S(=O)(=O)NCc2ccc(OCCCOc3ccc(CNS(=O)(=O)c4cccc(C(=N)N)c4)cc3)cc2)c1` [Example 49, 3,1-Bis-{4-[(3-carbamimidoyl-benzenesulfonylamino)-methyl]-phenoxy}-propane]: the Ki in assay [1] is > 100 µM; on Human plasma factor Xa, 7.4 µM; at r-tissue kallikrein, > 100 µM; at Human lung tryptase, 0.02 µM; on Human plasma kallikrein, 6 µM; in assay [2] it was 2.8 µM.

Turning to `N=C(N)c1ccc(S(=O)(=O)NCc2ccc(OCCCOc3ccc(CNS(=O)(=O)c4ccc(C(=N)N)cc4)cc3)cc2)cc1` [Example 50, 1,3-Bis-{4-[(4-carbamimidoyl-benzenesulfonylamino)-methyl]-phenoxy}-propane], the Ki in assay [1] is 6.3 µM; on Human plasma factor Xa, > 100 µM; on r-tissue kallikrein, > 100 µM; at Human lung tryptase it was 0.8 µM; at Human plasma kallikrein it was > 100 µM.

For the compound `N=C(N)c1cccc(S(=O)(=O)NCc2ccc(OCCOc3ccc(CNS(=O)(=O)c4cccc(C(=N)N)c4)cc3)cc2)c1` [Example 51, 1,2-Bis-{4-[(3-carbamimidoyl-benzenesulfonylamino)-methyl]-phenoxy}-ethane], the Ki in assay [1] was > 100 µM; on Human plasma factor Xa, 6.1 µM; at r-tissue kallikrein it was > 100 µM; at Human lung tryptase, 0.03 µM; on Human plasma kallikrein, 12 µM; in assay [2], 5.2 µM.

In the case of `N=C(N)c1cccc(S(=O)(=O)NCc2ccc(COCc3ccc(CNS(=O)(=O)c4cccc(C(=N)N)c4)cc3)cc2)c1` [Example 53, 1,3-Bis-{4-[(3-carbamimidoyl-benzenesulfonylamino)-methyl]-phenyl}-2-oxapropane], the Ki in assay [1] was > 100 µM; on Human plasma factor Xa, 16 µM; at r-tissue kallikrein, > 100 µM; on Human lung tryptase, 0.1 µM; at Human plasma kallikrein, 8.8 µM; in assay [2], 3 µM.

`N=C(N)c1ccc(C(=O)NCc2ccc(OCCCCCOc3ccc(CNC(=O)c4ccc(C(=N)N)cc4)cc3)cc2)cc1` [Example 54, 1,5-Bis-{4-[(4-carbamimidoyl-benzenecarbonylamino)-methyl]-phenoxy}-pentane]: the Ki is > 100 µM in assay [1]; > 100 µM at Human plasma factor Xa; > 100 µM on r-tissue kallikrein; 16 µM at Human plasma kallikrein; 0.91 µM in assay [2].

As to `N=C(N)c1ccc(C(=O)NCc2ccc(OCCCCCCOc3ccc(CNC(=O)c4ccc(C(=N)N)cc4)cc3)cc2)cc1` [Example 56, 1,6-Bis-{4-[(4-carbamimidoyl-benzenecarbonylamino)-methyl]-phenoxy}-hexane], the Ki in assay [1] was > 100 µM; at r-tissue kallikrein, > 100 µM; in assay [2] it was 1.3 µM.

Turning to `N=C(N)c1cccc(C(=O)NCc2ccc(OCCCCCCOc3ccc(CNC(=O)c4cccc(C(=N)N)c4)cc3)cc2)c1` [Example 57, 1,6-Bis-{4-[(3-carbamimidoyl-benzenecarbonylamino)-methyl]-phenoxy}-hexane], the Ki in assay [1] is > 100 µM; at r-tissue kallikrein, > 100 µM; on Human lung tryptase it was 0.01 µM; in assay [2] it was 1.7 µM.

With `N=C(N)c1cccc(C(=O)NCc2ccc(OCCCOc3ccc(CNC(=O)c4cccc(C(=N)N)c4)cc3)cc2)c1` [Example 63, 1,3-Bis-{4-[(3-carbamimidoyl-benzoylamino)-methyl]-phenoxy}-propane], the Ki in assay [1] was > 100 µM; on r-tissue kallikrein, > 100 µM; at Human lung tryptase it was 0.02 µM; in assay [2], 2.4 µM.

The values above are taken from patent US6221914A, “Sulfonamide bridging compounds that inhibit tryptase activity” (Array Biopharma Inc., priority 1998, dated 2001).
